Assay results: patent US12466814B2, “Sterically shielded heptamethine cyanine dyes” (UNIVERSITY OF NOTRE DAME DU LAC, priority 2020, dated 2025)
Several values for one entry are separate records, joined by “and”; a condition that tells them apart may be missing. Equal values may be shown once. Marks after values point to notes of the source that are not given here.

Tests used:
[1] = biological target: T1, bovine serum albumin (BSA) (Bos taurus, UniProt P02769); assay: Albumin binding, dye fluorescence with and without BSA; settings: PBS, presence and absence of BSA (2 μM)
T1 construct: a solution of bovine serum albumin (BSA, 2 μM) at 37° C; purchased
Method: The second set of titration experiments measured the fluorescence intensity for samples of 756z and s775z at different concentrations in the presence and absence of BSA (2 μM).

[2] = Photostability, Xenon lamp irradiation; type: physicochemical
Method: FIG. 2. Two separate photostability studies. (a) Lamp irradiation: Four separate cuvettes, each containing 1 μM dye in PBS buffer, pH 7.4, were irradiated by a 150 W Xenon lamp with a 620 nm long-pass filter. The plot of normalized dye absorbance versus time was fit to a one-phase exponential decay. […] The length scale bar on each NIR fluorescence image is 1 cm.
Photostability Measurements. Lamp Irradiation: A solution of dye (1 μM) in PBS buffer, pH 7.4, was placed in a 1×1×4 cm^3 cuvette that was exposed to air and irradiated at a distance of 3 cm by a 150 W Xenon lamp with a 620 nm long-pass filter. An absorbance spectrum was recorded every 10 min. The normalized maximum absorbance of dye was plotted against time and fitted to a non-linear regression, one-phase exponential decay. […] A 1.5 mL vial containing the solution was irradiated at a distance of 3 cm by a 150 W Xenon lamp with a 620 nm long-pass filter.

[3] = meso linkage is not cleaved by biological amines or thiols; cited from earlier work
[4] = Antibody conjugate absorbance and fluorescence; type: physicochemical; settings: value used in degree of labeling calculation
Method: Antibody Conjugate Absorbance. Absorbance spectra of goat IgG antibody bioconjugates were collected in buffer B (575 mM NaCl, 37.5 mM NaH2PO4 and 0.75 mM EDTA in water, pH 7.5) using Implen NanoPhotometer NP80. Spectra were normalized to absorbance at 280 nm.
Antibody Conjugate Fluorescence. […] The fluorescence emission spectra were divided by the fluorescence emission intensity at 355 nm (ex: 280 nm, slit width: 2 nm) to obtain corrected spectra that accounts for variations in antibody concentration.

[5] = Water solubility and storage of aqueous stock solutions; type: physicochemical; settings: 1 mM in water
[6] = Dye self-aggregation by absorption/excitation spectra; type: physicochemical; settings: in water / aqueous media, absorption spectra
Text: Self-aggregation of heptamethine cyanine dyes is readily indicated by conversion of monomer absorption bands into aggregate bands, in this case blue-shifted H-aggregates.

[7] = Quantum yield and fluorescence brightness relative to UL766; type: physicochemical
Text: The fluorescence spectrum of each solution was obtained with excitation at 730 nm, and the integrated area was used in the quantum yield calculation by the following equation:
[formula] where η is the refractive index of the solvent, I is the integrated fluorescence intensity, and A is the absorbance at a chosen wavelength. […]

[8] = Absorption and emission spectral properties of dyes; type: physicochemical; settings: for λabs max: monomer (m) band where an aggregate band is also listed
Method: General. Reagents and solvents were purchased from Sigma-Aldrich, VWR, Oakwood, Thermo Fisher and TCI and used without further purification unless stated otherwise. Anhydrous tetrahydrofuran was distilled with metal sodium and benzophenone. Column chromatography was performed using Biotage SNAP Ultra columns. ^1H, ^13C and ROESY NMR spectra were recorded on a Bruker 500 NMR spectrometer. Chemical shifts are presented in ppm and referenced by residual solvent peak. High-resolution mass spectrometry (HRMS) was performed using a time-of-flight (TOF) analyzer with electrospray ionization (ESI). Absorption spectra were recorded on an Evolution 201 UV/vis spectrometer with Thermo Insight software. Fluorescence spectra were collected on a Horiba Fluoromax-4 fluorometer with FluoroEssence software. Analyte solutions were prepared in HPLC grade water (Sigma-Aldrich), phosphate buffered saline (Thermo Fisher), fetal bovine serum (Sigma-Aldrich) or buffer B (575 mM NaCl, 37.5 mM NaH2PO4 and 0.75 mM EDTA in water, pH 7.5). All absorption and fluorescence spectra were collected using quartz cuvettes (1 mL, 1 cm path length; for emission and excitation spectra, slit width=3 nm).

[9] = biological target: T1, bovine serum albumin (BSA); assay: Albumin binding, quenching of BSA tryptophan fluorescence
Method: FIG. 13. […] The relative fluorescence intensity at 335 nm was determined using the following equation, where F0 is the initial fluorescence intensity, F is the fluorescence intensity after each aliquot addition of dye, and the slope of the trend line (m) corresponds to Ka±SD.
Albumin Binding Measurements. Two separate sets of titration experiments were performed. The first set of titration experiments measured quenching of bovine serum albumin (BSA) tryptophan fluorescence as dye was added incrementally. […] After each aliquot addition, the solution was mixed and allowed to equilibrate for 5 min before spectral acquisition.

T1 sequence (P02769 25-607): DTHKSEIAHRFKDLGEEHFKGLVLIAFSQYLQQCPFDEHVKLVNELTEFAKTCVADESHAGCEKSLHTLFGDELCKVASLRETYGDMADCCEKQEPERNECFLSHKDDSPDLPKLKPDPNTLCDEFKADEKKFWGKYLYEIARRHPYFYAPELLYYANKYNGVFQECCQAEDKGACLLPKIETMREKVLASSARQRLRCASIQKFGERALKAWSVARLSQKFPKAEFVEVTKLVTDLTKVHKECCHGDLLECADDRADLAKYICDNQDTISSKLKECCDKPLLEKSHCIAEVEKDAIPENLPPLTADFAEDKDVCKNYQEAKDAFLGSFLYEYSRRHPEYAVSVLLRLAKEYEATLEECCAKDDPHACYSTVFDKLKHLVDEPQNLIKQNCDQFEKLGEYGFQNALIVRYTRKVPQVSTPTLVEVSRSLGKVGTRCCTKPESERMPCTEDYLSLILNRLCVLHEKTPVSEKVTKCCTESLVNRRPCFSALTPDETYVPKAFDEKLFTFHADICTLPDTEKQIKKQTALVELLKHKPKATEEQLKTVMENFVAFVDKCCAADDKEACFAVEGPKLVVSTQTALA

CC1(C)C(/C=C/C2=C(c3ccc(C(=O)O)cc3)C(=C/C=C3/N(CCC[N+](C)(C)C)c4ccc(S(=O)(=O)O)cc4C3(C)C)/CCC2)=[N+](CCC[N+](C)(C)C)c2ccc(S(=O)(=O)O)cc21 [Dye 756z]
Effect of BSA on dye fluorescence [1]: no effect on the dye fluorescence
k, rate constant of first-order decay ([2]; pH 7.4 PBS, 150 W Xenon lamp irradiation, 620 nm long-pass filter, 23° C., 1 μM dye): 0.00037 s⁻¹
Order of photostabilities ([2]; separate cuvettes, dye in PBS, Xenon lamp >620 nm): s775z>756z>UL766>ICG
Stable to nucleophiles [3]: Yes
ϵmax for the monomer peak [4]: 111,000 M^−1 cm^−1
Storage of 1 mM stock solution in water [5]: forms a precipitate after 24 hr
Aggregation state [6]: exists largely as non-fluorescent H-aggregates
Brightness (fluorescence brightness = ε × QY) ([7]; PBS pH 7.4, error ±15%): 9,600
QY ([7]; PBS pH 7.4, relative to UL766, error ±10%): 0.097
Quantum yield ([7]; pH 7.4 PBS, relative to UL766, error ±10%): 9.7^[b] %
SS (Stokes shift) ([8]; 2 μM BSA in pH 7.4 PBS): 18 nm
ε ([8]; 2 μM BSA in pH 7.4 PBS): 107,000 M^−1cm^−1
λabs max, aggregate (a) band ([8]; 2 μM BSA in pH 7.4 PBS): 681 (a)/ nm
λem max ([8]; 2 μM BSA in pH 7.4 PBS): 773 nm
λabs max ([8]; 2 μM BSA in pH 7.4 PBS): 755 (m) nm
SS (Stokes shift) ([8]; 100% FBS): 16 nm
ε ([8]; 100% FBS): 118,000 M^−1cm^−1
λabs max, aggregate (a) band ([8]; 100% FBS): 682 (a)/ nm
λem max ([8]; 100% FBS): 774 nm
λabs max ([8]; 100% FBS): 758 (m) nm
SS (Stokes shift) ([8]; H2O): 17 nm
ε ([8]; H2O): 56,000 M^−1cm^−1
λabs max, aggregate (a) band ([8]; H2O): 681 (a)/ nm
λem max ([8]; H2O): 773 nm
λabs max ([8]; H2O): 756 (m) nm
SS (Stokes shift) ([8]; PBS pH 7.4): 17 nm
λabs max, aggregate (a) band ([8]; PBS pH 7.4, room temperature): 681 (a)^[f] nm and 681 (a)/ nm
λem max ([8]; PBS pH 7.4, room temperature): 773 nm
λabs max ([8]; PBS pH 7.4, room temperature): 756 (m)^[f] nm and 756 (m) nm
ε ([8]; PBS pH 7.4, room temperature, monomer band): 99,000 (0.942)^[b] M^−1cm^−1 and 99,000 M^−1cm^−1
Ka relative to Ka for BSA association with ICG [9]: about 40 times lower
Ka for BSA ([9]; BSA 2 μM, 37° C., tryptophan fluorescence quenching): 16000 M⁻¹
Dye/BSA affinity ([9]; tryptophan quenching titration): weak dye/BSA affinity
